# Measurements: patent US20130018033A1, “RAF INHIBITOR COMPOUNDS AND METHODS OF USE THEREOF” (ARRAY BIOPHARMA INC., priority 2009, published 2013)
# Like-named read-outs stand apart in the source and are kept apart here.
# Experiments:
# [1] = target: T1, V600E full-length B-Raf (Homo sapiens, UniProt P15056, V600E); test: B-Raf IC50 assay (Example A); type: biochemical
# T1 construct: 1 μM FSBA-MEK and 20 nM V600E full-length B-Raf; made in house; host or cells: Sf9 insect cells (baculovirus)
# Source text: Determining the activity of Raf in the sample is possible by a number of direct and indirect detection methods (US 2004/0082014). Activity of human recombinant B-Raf protein may be assessed in vitro by assay of the incorporation of radio labeled phosphate to recombinant MAP kinase (MEK), a known physiologic substrate of B-Raf, according to US 2004/0127496 and WO 03/022840. The activity/inhibition of V600E full-length B-Raf was estimated by measuring the incorporation of radio labeled phosphate from [γ-^33P]ATP into FSBA-modified wild-type MEK (see Example A).
# Activity of human recombinant B-Raf protein may be assessed in vitro by assay of the incorporation of radio labeled phosphate to recombinant MAP kinase (MEK), a known physiologic substrate of B-Raf, according to US 2004/0127496 and WO 03/022840. Catalytically active human recombinant B-Raf protein is obtained by purification from sf9 insect cells infected with a human B-Raf recombinant baculovirus expression vector.
# The activity/inhibition of V600E full-length B-Raf was estimated by measuring the incorporation of radio labeled phosphate from [γ-^33P]ATP into FSBA-modified wild-type MEK. The 30-μL assay mixtures contained 25 mM Na Pipes, pH 7.2, 100 mM KCl, 10 mM MgCl2, 5 mM β-glycerophosphate, […], 4 μM ATP, 500 nCi [γ-^33P]ATP, 1 μM FSBA-MEK and 20 nM V600E full-length B-Raf. Incubations were carried out at 22° C. in a Costar 3365 plate (Corning). Prior to the assay, the B-Raf and FSBA-MEK were preincubated together in assay buffer at 1.5×(20 μL of 30 nM and 1.5 μM, respectively) for 15 minutes, and the assay was initiated by the addition of 10 μL of 10 μM ATP. Following the 60-minute incubation, the assay mixtures were quenched by the addition of 100 μL of 25% TCA, the plate was mixed on a rotary shaker for 1 minute, and the product was captured on a Perkin-Elmer GF/B filter plate using a Tomtec Mach III Harvester. After sealing the bottom of the plate, 35 μL of Bio-Safe II (Research Products International) scintillation cocktail were added to each well and the plate was top-sealed and counted in a Topcount NXT (Packard).
# [2] = test system: basal ERK1/2 phosphorylation in Malme-3M cells; test: Cellular ERK 1/2 phosphorylation assay (Example A1); type: cell-based; conditions: Homo sapiens, 1 hour incubation, pERK normalized to total ERK, read-out: P-ERK Malme3-M IC50
# Method: Inhibition of basal ERK1/2 phosphorylation was determined by the following in vitro […], which comprises incubating cells with a compound of Formula I for 1 hour and quantifying the fluorescent pERK signal on fixed cells and normalizing to total ERK signal.
# Malme-3M cells were obtained from ATCC and grown in RPMI-1640 supplemented with 10% fetal bovine serum. Cells were plated in 96-well plates at 24,000 cells/well and allowed to attach for 16-20 hours at 37° C., 5% CO2. The media was removed, and DMSO-diluted compounds were added in RPMI-1640 at a final concentration of 1% DMSO. The cells were incubated with the compounds for 1 hour at 37° C., 5% CO2. The cells were washed with PBS and fixed in 3.7% formaldehyde in PBS for 15 minutes. This was followed by washing in PBS/0.05% Tween20 and permeabilizing in −20° C. 100% MeOH for 15 minutes. Cells were washed in PBS/0.05% Tween20 then blocked in Odyssey blocking buffer (LI-COR Biosciences) for 1 hour. Antibodies to phosphorylated ERK (1:400, Cell Signaling #9106, monoclonal) and total ERK (1:400, Santa Cruz Biotechnology #sc-94, polyclonal) were added to the cells and incubated 16-20 hours at 4° C. After washing with PBS/0.05% Tween20, the cells were incubated with fluorescently-labeled secondary antibodies (1:1000 goat anti-rabbit IgG-IRDye800, Rockland and 1:500 goat anti-mouse IgG-Alexa Fluor 680, Molecular Probes) for an additional hour. Cells were then washed and analyzed for fluorescence at both wavelengths using the Odyssey Infrared Imaging System (LI-COR Biosciences). Phosphorylated ERK signal was normalized to total ERK signal.
# [3] = B-Raf V600E assay of Example A, read-out: IC50
# [4] = [γ-33P]ATP incorporation into FSBA-MEK, 4 μM ATP, read-out: BRAF V600E IC50
# T1 sequence (P15056 whole entry V600E): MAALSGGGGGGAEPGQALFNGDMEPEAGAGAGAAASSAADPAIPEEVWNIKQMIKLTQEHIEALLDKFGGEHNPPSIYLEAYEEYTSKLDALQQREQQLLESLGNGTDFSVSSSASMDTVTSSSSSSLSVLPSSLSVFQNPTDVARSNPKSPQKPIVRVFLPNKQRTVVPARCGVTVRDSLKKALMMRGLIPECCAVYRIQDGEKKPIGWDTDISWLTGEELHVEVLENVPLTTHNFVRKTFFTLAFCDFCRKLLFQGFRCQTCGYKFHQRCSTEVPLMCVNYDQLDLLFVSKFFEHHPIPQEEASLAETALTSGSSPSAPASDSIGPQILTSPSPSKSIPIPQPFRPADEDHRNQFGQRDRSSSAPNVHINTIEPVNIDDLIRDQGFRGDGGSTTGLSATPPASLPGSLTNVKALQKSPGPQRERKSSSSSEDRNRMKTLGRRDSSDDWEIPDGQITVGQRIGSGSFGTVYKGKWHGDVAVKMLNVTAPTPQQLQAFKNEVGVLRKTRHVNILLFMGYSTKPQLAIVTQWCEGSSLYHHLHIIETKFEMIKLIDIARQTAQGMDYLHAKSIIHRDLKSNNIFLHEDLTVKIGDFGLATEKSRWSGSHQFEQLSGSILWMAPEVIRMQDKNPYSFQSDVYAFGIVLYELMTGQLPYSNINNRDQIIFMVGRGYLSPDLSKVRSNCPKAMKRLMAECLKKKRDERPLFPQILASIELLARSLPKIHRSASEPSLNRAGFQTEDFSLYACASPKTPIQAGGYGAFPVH
"IC50 [1, 3] [nM]","IC50 [1, 4] [nM]",Compound,IC50 [2] [nM],"IC50 ([1]; BRAF V600E IC50 (μM), [γ-33P]ATP incorporation into FSBA-MEK, 4 μM ATP) [nM]"
< 100,0.55,"CC(C)CS(=O)(=O)Nc1ccc(F)c(NC(=O)c2cccc3c(N)ncnc23)c1Cl [Example 10, 4-Amino-quinazoline-8-carboxylic acid [2-chloro-6-fluoro-3-(2-methyl-propane-1-sulfonylamino)-phenyl]-amide]",6.73,
< 100,4.13,"CCCS(=O)(=O)Nc1cc(F)cc(NC(=O)c2cccc3c(N)ncnc23)c1F [Example 11, 4-Amino-quinazoline-8-carboxylic acid [2,5-difluoro-3-(propane-1-sulfonylamino)-phenyl]-amide]",45,
< 100,1.55,"CC(C)CS(=O)(=O)Nc1ccc(F)c(NC(=O)c2cccc3c(N)ncnc23)c1F [Example 12, 4-Amino-quinazoline-8-carboxylic acid [2,6-difluoro-3-(2-methyl-propane-1-sulfonylamino)-phenyl]-amide]",8.54,
< 100,3.8,"Nc1ncnc2c(C(=O)Nc3c(F)ccc(NS(=O)(=O)CC4CC4)c3F)cccc12 [Example 13, 4-Amino-quinazoline-8-carboxylic acid (3-cyclopropyl-methane-sulfonylamino-2,6-difluoro-phenyl)-amide]",14.9,
< 100,27.9,"CCCS(=O)(=O)Nc1cc(Cl)cc(NC(=O)c2cccc3c(N)ncnc23)c1F [Example 14, 4-Amino-quinazoline-8-carboxylic acid [5-chloro-2-fluoro-3-(propane-1-sulfonylamino)-phenyl]-amide]",381,
< 100,0.5,"CC(C)CS(=O)(=O)Nc1ccc(Cl)c(NC(=O)c2cccc3c(N)ncnc23)c1F [Example 15, 4-Amino-quinazoline-8-carboxylic acid [6-chloro-2-fluoro-3-(2-methyl-propane-1-sulfonylamino)-phenyl]-amide]",6.08,
< 100,2.6,"Nc1ncnc2c(C(=O)Nc3c(F)ccc(NS(=O)(=O)CC4CC4)c3Cl)cccc12 [Example 16, 4-Amino-quinazoline-8-carboxylic acid (2-chloro-3-cyclopropyl-methane-sulfonylamino-6-fluoro-phenyl)-amide]",15.2,
< 100,1.53,"CCS(=O)(=O)Nc1ccc(Cl)c(NC(=O)c2cccc3c(N)ncnc23)c1F [Example 18, 4-Amino-quinazoline-8-carboxylic acid (6-chloro-3-ethanesulfonyl-amino-2-fluoro-phenyl)-amide]",18.2,
< 100,4.97,"CCS(=O)(=O)Nc1ccc(F)c(NC(=O)c2cccc3c(N)ncnc23)c1F [Example 19, 4-Amino-quinazoline-8-carboxylic acid (3-ethanesulfonyl-amino-2,6-difluoro-phenyl)-amide]",25.9,
< 100,2.24,"CCS(=O)(=O)Nc1ccc(F)c(NC(=O)c2cccc3c(N)ncnc23)c1Cl [Example 20, 4-Amino-quinazoline-8-carboxylic acid (2-chloro-3-ethanesulfonyl-amino-6-fluoro-phenyl)-amide]",32.4,
< 100,18.5,"CCCS(=O)(=O)Nc1ccc(C)c(NC(=O)c2cccc3c(N)ncnc23)c1 [Example 21, 4-Amino-quinazoline-8-carboxylic acid [2-methyl-5-(propane-1 sulfonylamino)-phenyl]-amide]",1320,
< 100,64.9,"CCCS(=O)(=O)Nc1ccc(Cl)c(NC(=O)c2cccc3c(N)ncnc23)c1 [Example 22, 4-Amino-quinazoline-8-carboxylic acid [2-chloro-5-(propane-1-sulfonylamino)-phenyl]-amide]",1110,
< 100,0.14,"Nc1ncnc2c(C(=O)Nc3c(F)ccc(NS(=O)(=O)CCCF)c3Cl)cccc12 [Example 24, 4-Amino-quinazoline-8-carboxylic acid [2-chloro-6-fluoro-3-(3-fluoro-propane-1-sulfonylamino)-phenyl]-amide]",4.05,
< 100,0.09,"Nc1ncnc2c(C(=O)Nc3c(Cl)ccc(NS(=O)(=O)CCCF)c3F)cccc12 [Example 25, 4-Amino-quinazoline-8-carboxylic acid [6-chloro-2-fluoro-3-(3-fluoro-propane-1-sulfonylamino)-phenyl]-amide]",2.21,
< 100,0.31,"Nc1ncnc2c(C(=O)Nc3c(F)c(F)cc(NS(=O)(=O)CCCF)c3F)cccc12 [Example 26, 4-Amino-quinazoline-8-carboxylic acid [2,3,6-trifluoro-5-(3-fluoro-propane-1-sulfonylamino)-phenyl]-amide]",10.8,
< 100,0.08,"Nc1ncnc2c(C(=O)Nc3c(Cl)ccc(NS(=O)(=O)CCCF)c3Cl)cccc12 [Example 27, 4-Amino-quinazoline-8-carboxylic acid [2,6-dichloro-3-(3-fluoro-propane-1-sulfonylamino)-phenyl]-amide]",4.07,
< 100,0.08,"CCCS(=O)(=O)Nc1ccc(Cl)c(NC(=O)c2cccc3c(N)ncnc23)c1C#N [Example 29, 4-Amino-quinazoline-8-carboxylic acid [6-chloro-2-cyano-3-(propane-1-sulfonylamino)-phenyl]-amide]",25.3,
< 100,0.08,"CCCS(=O)(=O)Nc1cccc(NC(=O)c2cccc3c(N)ncnc23)c1C#N [Example 30, 4-Amino-quinazoline-8-carboxylic acid [2-cyano-3-(propane-1-sulfonylamino)-phenyl]-amide]",7.1,
< 100,0.4,"C#Cc1c(NS(=O)(=O)CCC)ccc(Cl)c1NC(=O)c1cccc2c(N)ncnc12 [Example 31, 4-Amino-quinazoline-8-carboxylic acid [6-chloro-2-ethynyl-3-(propane-1-sulfonylamino)-phenyl]-amide]",42,
< 100,0.38,"Nc1ncnc2c(C(=O)Nc3c(F)ccc(NS(=O)(=O)c4ccccc4)c3F)cccc12 [Example 32, 4-Amino-quinazoline-8-carboxylic acid (3-benzenesulfonylamino-2,6-difluoro-phenyl)-amide]",17.7,
< 100,0.17,"Nc1ncnc2c(C(=O)Nc3c(F)ccc(NS(=O)(=O)c4ccco4)c3F)cccc12 [Example 33, 4-Amino-quinazoline-8-carboxylic acid [2,6-difluoro-3-(furan-2-sulfonylamino)-phenyl]-amide]",12.5,

Compound,"IC50 [1, 3] [nM]","IC50 [1, 4] [nM]",IC50 [2] [nM],"IC50 ([1]; BRAF V600E IC50 (μM), [γ-33P]ATP incorporation into FSBA-MEK, 4 μM ATP) [nM]"
"CCCS(=O)(=O)Nc1ccc(Cl)c(NC(=O)c2cccc3c(N)ncnc23)c1F [Example 17, 4-Amino-quinazoline-8-carboxylic acid [6-chloro-2-fluoro-3-(propane-1-sulfonylamino)-phenyl]-amide]",< 100,,8.7,0.58
